Here are results for 28 compounds from patent publication US10758534B2 (Vertex Pharmaceuticals Incorporated, priority 2014, dated 2020).

Read-outs that look alike come from different tables or passages of the source. Where only a bound is given, the exact number is not on record here.

Broadly, the EC30 is the concentration needed for an effect of 30%.

This assay deals with T1, F508del (Homo sapiens, UniProt P13569, DEL508-508).
T1 construct: expressed in transfected cells
The assay is described as follows: Protocol 2: FRET membrane potential optical assay (VIPR), identification of correction compounds. The assay is classed as cell-based. An outline of the steps: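 Single-addition HTS format: F508del-expressing NIH3T3 cells pre-incubated 16 hrs at 37° C. ± compound, with 27° C. culture as positive control. Channel activation by forskolin 10 μM and genistein 20 μM upon switch to gluconate bath, pH 7.4; read-out is FRET-based depolarization signal.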

The mark [1] stands for this setting: Table 3, compounds of Table 1 as modulators of CFTR activity, protocol not stated.
Where [2] appears, read: F508del CFTR modulator activity, compounds of Table 1, read-out: EC30.

T1 sequence (P13569 with tags, fused parts or gaps DEL508-508): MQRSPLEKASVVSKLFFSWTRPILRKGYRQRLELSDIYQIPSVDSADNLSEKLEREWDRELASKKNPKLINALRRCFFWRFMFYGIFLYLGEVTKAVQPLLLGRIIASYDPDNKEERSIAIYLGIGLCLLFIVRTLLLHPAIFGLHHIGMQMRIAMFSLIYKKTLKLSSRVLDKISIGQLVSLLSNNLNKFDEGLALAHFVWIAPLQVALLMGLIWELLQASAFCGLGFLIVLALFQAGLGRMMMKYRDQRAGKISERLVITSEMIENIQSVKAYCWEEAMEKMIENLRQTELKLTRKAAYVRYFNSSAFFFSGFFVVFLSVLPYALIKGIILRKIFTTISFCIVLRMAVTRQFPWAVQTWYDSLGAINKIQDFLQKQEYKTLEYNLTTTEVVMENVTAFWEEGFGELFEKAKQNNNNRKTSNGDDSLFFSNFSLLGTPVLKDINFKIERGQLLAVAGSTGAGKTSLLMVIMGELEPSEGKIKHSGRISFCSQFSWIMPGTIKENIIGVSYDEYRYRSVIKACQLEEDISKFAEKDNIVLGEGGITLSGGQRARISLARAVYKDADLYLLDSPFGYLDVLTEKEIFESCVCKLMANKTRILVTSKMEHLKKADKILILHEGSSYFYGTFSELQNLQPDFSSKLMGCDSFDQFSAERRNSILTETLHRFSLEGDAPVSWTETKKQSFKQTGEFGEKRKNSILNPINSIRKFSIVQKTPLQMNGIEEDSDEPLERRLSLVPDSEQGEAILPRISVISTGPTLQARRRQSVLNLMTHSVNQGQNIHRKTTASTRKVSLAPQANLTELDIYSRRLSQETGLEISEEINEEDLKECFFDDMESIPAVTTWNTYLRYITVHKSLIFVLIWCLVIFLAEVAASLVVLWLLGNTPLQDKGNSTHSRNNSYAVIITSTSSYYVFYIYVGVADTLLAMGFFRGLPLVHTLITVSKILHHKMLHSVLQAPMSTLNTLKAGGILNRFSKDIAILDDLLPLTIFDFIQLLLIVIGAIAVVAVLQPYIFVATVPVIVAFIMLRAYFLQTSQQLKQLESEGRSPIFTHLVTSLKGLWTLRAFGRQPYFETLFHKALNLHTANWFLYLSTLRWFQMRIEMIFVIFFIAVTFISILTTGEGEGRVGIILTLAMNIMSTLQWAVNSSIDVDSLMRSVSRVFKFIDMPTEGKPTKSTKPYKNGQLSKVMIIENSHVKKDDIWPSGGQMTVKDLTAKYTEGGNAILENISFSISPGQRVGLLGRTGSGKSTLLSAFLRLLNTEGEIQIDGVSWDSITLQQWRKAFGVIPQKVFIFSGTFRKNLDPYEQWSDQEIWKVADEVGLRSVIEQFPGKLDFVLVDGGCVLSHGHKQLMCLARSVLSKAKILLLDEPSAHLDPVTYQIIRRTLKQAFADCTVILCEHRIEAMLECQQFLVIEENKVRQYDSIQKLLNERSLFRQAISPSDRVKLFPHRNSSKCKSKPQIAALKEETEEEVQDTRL

For the compound `CC(C)COc1cccc(-c2ccc(C(=O)NS(=O)(=O)c3cccc(N)n3)c(N3CC(C)CC3(C)C)n2)n1` (stereo not shown) [Compound 397, N-[(6-amino-2-pyridyl)sulfonyl]-6-(6-isobutoxy-2-pyridyl)-2-(2,2,4-trimethylpyrrolidin-1-yl)pyridine-3-carboxamide], the EC30 result under setting [1] is on record as “+++ (“+++” means <3 uM)”.
For `C[C@@H]1CC[C@H](C)N1c1nc(-c2ccc(OCC3(C)CC3)nc2)ccc1C(=O)NS(=O)(=O)c1cccc(N)n1` [Compound 454, N-[(6-amino-2-pyridyl)sulfonyl]-2-[(2S,5R)-2,5-dimethylpyrrolidin-1-yl]-6-[6-[(1-methylcyclopropyl)methoxy]-3-pyridyl]pyridine-3-carboxamide], the EC30 entry under setting [1] is reported as “+++ (“+++” means <3 uM)”.
The same measure, in the same setting: under `CC(C)Oc1ccc(-c2ccc(C(=O)NS(=O)(=O)c3cccc(N)n3)c(N3CCCC4(CC4)C3)n2)cn1` [Compound 703, N-[(6-amino-2-pyridyl)sulfonyl]-2-(7-azaspiro[2.5]octan-7-yl)-6-(6-isopropoxy-3-pyridyl)pyridine-3-carboxamide] stands “+++ (“+++” means <3 uM)”.
The same measure, in the same setting: under `COc1ccc(-c2ccc(C(=O)NS(=O)(=O)c3cccc(N)n3)c(Oc3c(C)cc(C)cc3C)n2)cn1` [Compound 531, N-[(6-amino-2-pyridyl)sulfonyl]-6-(6-methoxy-3-pyridyl)-2-(2,4,6-trimethylphenoxy)pyridine-3-carboxamide] stands “+++ (“+++” means <3 uM)”; under `CC(C)CN(C)c1ccc(-c2ccc(C(=O)NS(=O)(=O)c3cccc(N)n3)c(N3CC(C)CC3(C)C)n2)cn1` (stereo not shown) [Compound 412, N-[(6-amino-2-pyridyl)sulfonyl]-6-[6-[isobutyl(methyl)amino]-3-pyridyl]-2-(2,2,4-trimethylpyrrolidin-1-yl)pyridine-3-carboxamide], “+++ (“+++” means <3 uM)”.
As to `Cc1ccc(-c2ccc(C(=O)NS(=O)(=O)c3ccc[nH]c3=O)c(N3C[C@@H](C)CC3(C)C)n2)c(F)c1` [Compound 2000, 6-(2-fluoro-4-methyl-phenyl)-N-[(2-oxo-1H-pyridin-3-yl)sulfonyl]-2-[(4S)-2,2,4-trimethylpyrrolidin-1-yl]pyridine-3-carboxamide], the EC30 under setting [2] was below 3000 nM.
On to `COc1cc(F)ccc1-c1cc(C(=O)NS(=O)(=O)c2ccccc2)n(Cc2c(C)cccc2C)n1` [Compound 155, N-(benzenesulfonyl)-2-[(2,6-dimethylphenyl)methyl]-5-(4-fluoro-2-methoxy-phenyl)pyrazole-3-carboxamide], for which the EC30 result under setting [1] was “++ (“++” means between 3 uM and 10 uM)”.
The same measure, in the same setting: the same measure for `COc1cc(-c2ccc(C(=O)NS(=O)(=O)c3cccc(N)n3)c(Oc3c(C)cc(C)cc3C)n2)ccc1C` [Compound 375, N-[(6-amino-2-pyridyl)sulfonyl]-6-(3-methoxy-4-methyl-phenyl)-2-(2,4,6-trimethylphenoxy)pyridine-3-carboxamide]: “+++ (“+++” means <3 uM)”.
Consider `C[C@@H]1CN(c2nc(-c3ccc4cc(O)ccc4c3)ccc2C(=O)NS(=O)(=O)c2cccnc2N)C(C)(C)C1` [Compound 2468, N-[(2-amino-3-pyridyl)sulfonyl]-6-(6-hydroxy-2-naphthyl)-2-[(4S)-2,2,4-trimethylpyrrolidin-1-yl]pyridine-3-carboxamide], for which the EC30 under setting [2] was below 3000 nM.
In the case of `CC(C)Oc1ccc(-c2ccc(C(=O)NS(=O)(=O)N3CC[C@H](N)C3)c(N3C[C@@H](C)CC3(C)C)n2)cc1` [Compound 2120, N-[(3S)-3-aminopyrrolidin-1-yl]sulfonyl-6-(4-isopropoxyphenyl)-2-[(4S)-2,2,4-trimethylpyrrolidin-1-yl]pyridine-3-carboxamide], the EC30 under setting [2] is below 3000 nM.
Regarding `CC1CN(c2ncccc2C(=O)NS(=O)(=O)c2cccc(OC3CC4CCC3(C)C4(C)C)n2)C(C)(C)C1` (stereo not shown) [Compound 2059, N—[[6-(1,7,7-trimethylnorbornan-2-yl)oxy-2-pyridyl]sulfonyl]-2-(2,2,4-trimethylpyrrolidin-1-yl)pyridine-3-carboxamide], under setting [2], the EC30 was below 3000 nM.
Consider `Cc1cc(C(=O)NS(=O)(=O)c2cccc(N)n2)c(N2[C@H](C)CC[C@@H]2C)nc1-c1cc(F)cc(OCC(C)C)c1` [Compound 483, N-[(6-amino-2-pyridyl)sulfonyl]-2-[(2R,5S)-2,5-dimethylpyrrolidin-1-yl]-6-(3-fluoro-5-isobutoxy-phenyl)-5-methyl-pyridine-3-carboxamide], for which the EC30 entry under setting [1] is “+++ (“+++” means <3 uM)”.
As to `Cc1cccc(Nc2cccc(S(=O)(=O)NC(=O)c3cccnc3N3CC(C)CC3(C)C)n2)c1` (stereo not shown) [Compound 2572, N—[[6-(3-methylanilino)-2-pyridyl]sulfonyl]-2-(2,2,4-trimethylpyrrolidin-1-yl)pyridine-3-carboxamide], the EC30 under setting [2] was below 3000 nM.
Consider `CC1CN(c2ncccc2C(=O)NS(=O)(=O)c2cccc(O[C@@H](C)c3ccccc3)n2)C(C)(C)C1` (stereo partly drawn) [Compound 2186, N—[[6-[(1S)-1-phenylethoxy]-2-pyridyl]sulfonyl]-2-(2,2,4-trimethylpyrrolidin-1-yl)pyridine-3-carboxamide], for which the concentration for an effect of 30% (EC30) under setting [2] is below 3000 nM.
For `Cc1cccc(C)c1Cn1nc(-c2ccc(F)cc2)cc1C(=O)NS(=O)(=O)c1ccccc1` [Compound 333, N-(benzenesulfonyl)-2-[(2,6-dimethylphenyl)methyl]-5-(4-fluorophenyl)pyrazole-3-carboxamide], the concentration for an effect of 30% (EC30) result under setting [1] is reported as “+++ (“+++” means <3 uM)”.
The same measure, in the same setting: under `Cc1cc(C)c(Oc2nc(C(C)(C)C)ccc2C(=O)NS(=O)(=O)c2ccccc2N)c(C)c1` [Compound 322, N-(2-aminophenyl)sulfonyl-6-tert-butyl-2-(2,4,6-trimethylphenoxy)pyridine-3-carboxamide] stands “+++ (“+++” means <3 uM)”; under `Cc1cc(C)c(Oc2nc(-c3cccc(CO)c3)ccc2C(=O)NS(=O)(=O)c2cccc(N)n2)c(C)c1` [Compound 786, N-[(6-amino-2-pyridyl)sulfonyl]-6-[3-(hydroxymethyl)phenyl]-2-(2,4,6-trimethylphenoxy)pyridine-3-carboxamide], “+ (“+” means greater than 10 uM)”.
The same measure, in the same setting: under `Cc1cccc(C)c1Oc1nc(C(F)(F)F)ccc1C(=O)NS(=O)(=O)c1cccc(N)n1` [Compound 246, N-[(6-amino-2-pyridyl)sulfonyl]-2-(2,6-dimethylphenoxy)-6-(trifluoromethyl)pyridine-3-carboxamide] stands “++ (“++” means between 3 uM and 10 uM)”.
On the same count and under the same terms, under `COc1ccc2c(c1)C(C)(C(=O)NS(=O)(=O)c1cccc(N)n1)N(Cc1c(C)cc(C)cc1C)C2` (stereo not shown) [Compound 474, N-[(6-amino-2-pyridyl)sulfonyl]-6-methoxy-1-methyl-2-[(2,4,6-trimethylphenyl)methyl]isoindoline-1-carboxamide] stands “+++ (“+++” means <3 uM)”.
With `COc1cccc(-c2ccc(C(=O)NS(=O)(=O)c3cccc(N)n3)c(Oc3c(C)cc(C)cc3C)n2)c1F` [Compound 661, N-[(6-amino-2-pyridyl)sulfonyl]-6-(2-fluoro-3-methoxy-phenyl)-2-(2,4,6-trimethylphenoxy)pyridine-3-carboxamide], the EC30 entry under setting [1] is listed as “+++ (“+++” means <3 uM)”.
Take `CCOc1cc(C)c(-c2ccc(C(=O)NS(=O)(=O)c3cccc(N)n3)c(N3C[C@@H](C)CC3(C)C)n2)cc1C` [Compound 2227, N-[(6-amino-2-pyridyl)sulfonyl]-6-(4-ethoxy-2,5-dimethyl-phenyl)-2-[(4S)-2,2,4-trimethylpyrrolidin-1-yl]pyridine-3-carboxamide]: the 30% effect concentration (EC30) under setting [2] was below 3000 nM.
As for `CC(C)Cc1ccc(C(=O)NS(=O)(=O)c2cccnc2N)c(N2C[C@@H](C)CC2(C)C)n1` [Compound 2150, N-[(2-amino-3-pyridyl)sulfonyl]-6-isobutyl-2-[(4S)-2,2,4-trimethylpyrrolidin-1-yl]pyridine-3-carboxamide], under setting [2], the EC30 is below 3000 nM.
Regarding `COc1ncccc1S(=O)(=O)NC(=O)C1c2ccccc2CN1Cc1c(C)cc(C)cc1C` (stereo not shown) [Compound 218, N-[(2-methoxy-3-pyridyl)sulfonyl]-2-[(2,4,6-trimethylphenyl)methyl]isoindoline-1-carboxamide], the EC30 entry under setting [1] was “++ (“++” means between 3 uM and 10 uM)”.
For the compound `CC(C)COc1cc(F)cc(-c2ccc(C(=O)NS(=O)(=O)c3cccc(N)n3)c(C3=CC(C)CC3(C)C)n2)c1` (single isomer, unassigned) [Compound 2081, N-[(6-amino-2-pyridyl)sulfonyl]-6-(3-fluoro-5-isobutoxy-phenyl)-2-(3,5,5-trimethylcyclopenten-1-yl)pyridine-3-carboxamide], for the setting “F508del CFTR modulator activity, compounds of Table 1”, the EC30 result was “+++ (“+++” means <3 uM)”.
`CN(c1ccccc1)c1nc(C(C)(C)C)ccc1C(=O)NS(=O)(=O)c1cccc(N)c1` [Compound 85, N-(3-aminophenyl)sulfonyl-6-tert-butyl-2-(N-methylanilino)pyridine-3-carboxamide]: the EC30 entry under setting [1] is “++ (“++” means between 3 uM and 10 uM)”.
In the case of `CC(C)COc1ccc(-c2ccc(C(=O)NS(=O)(=O)c3ccc[nH]c3=O)c(N3C[C@@H](C)CC3(C)C)n2)cc1` [Compound 2153, 6-(4-isobutoxyphenyl)-N-[(2-oxo-1H-pyridin-3-yl)sulfonyl]-2-[(4S)-2,2,4-trimethylpyrrolidin-1-yl]pyridine-3-carboxamide], the EC30 under setting [2] is below 3000 nM.
Regarding `CC(C)COc1cc(F)cc(-c2ccc(C(=O)NS(=O)(=O)c3ccn[nH]3)c(N3[C@H](C)CC[C@@H]3C)n2)c1` [Compound 415, 2-[(2S,5R)-2,5-dimethylpyrrolidin-1-yl]-6-(3-fluoro-5-isobutoxy-phenyl)-N-(1H-pyrazol-5-ylsulfonyl)pyridine-3-carboxamide], the 30% effect concentration (EC30) result under setting [1] was “+++ (“+++” means <3 uM)”.
Same read-out and setting: under `CC(C)COc1cc(F)cc(-c2ccc(C(=O)NS(=O)(=O)c3cccc(N)n3)c(N3CCCCC3)n2)c1` [Compound 380, N-[(6-amino-2-pyridyl)sulfonyl]-6-(3-fluoro-5-isobutoxy-phenyl)-2-(1-piperidyl)pyridine-3-carboxamide] stands “+++ (“+++” means <3 uM)”.
